Patent US7138361B2, “Herbicidal heterocycles” (E. I. du Pont de Nemours and Company, priority 2000, dated 2006)

What was measured:
Assay type in all cases: in vivo
[1] = test system: Surinam grass (Brachiaria decumbens); test: Test B preemergence
Summary of the method: (§1)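 Post-treatment, species sat 13–15 days under greenhouse conditions before visual scoring against controls, 0 (no effect) through 100 (complete control). Application preemergence to sown seeds or postemergence at 1- to 4-leaf stage, using a non-phytotoxic solvent/surfactant formulation.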

[2] = test system: giant foxtail (Setaria faberii); test: Test B preemergence
Summary of the method: as §1

[3] = test system: velvetleaf (Abutilon theophrasti); test: Test B preemergence
Summary of the method: as §1

[4] = test system: pigweed (Amaranthus retroflexus); test: Test B preemergence
Summary of the method: as §1

[5] = test system: barnyardgrass (Echinochloa crus-galli); test: Test B preemergence
Summary of the method: as §1

[6] = test system: lambsquarters (Chenopodium album); test: Test B preemergence
Summary of the method: as §1

[7] = test system: cocklebur (Xanthium strumarium); test: Test B preemergence
Summary of the method: as §1

rice (Oryza saliva) [8] = test: Test B preemergence
Summary of the method: as §1

corn (Zea mays) [9] = test: Test B preemergence
Summary of the method: as §1

[10] = test system: crabgrass (Digitaria sanguinalis); test: Test B preemergence
Summary of the method: as §1

[11] = test system: morning glory (Ipomoea hederacea); test: Test B preemergence
Summary of the method: as §1

[12] = test system: barnyardgrass (Echinochloa crus-galli); test: Test C flooded paddy test; details: for Barnyardgrass plant response rating: Flooded Paddy, scale 0 to 100, 0 no effect, 100 complete control; for Plant response rating, Barnyardgrass: flooded paddy test, scale 0 to 100 (0 no effect, 100 complete control)
Summary of the method: (§2)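 Visual ratings (0 = no effect, 100 = complete control) were made 12–14 days after treatment, relative to greenhouse controls. Plants in the flooded paddy test were rice, smallflower flatsedge, duck salad and barnyardgrass, treated at the 2-leaf stage.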

[13] = test system: duck salad (Heteranthera limosa); test: Test C flooded paddy test; details: for Ducksalad plant response rating: Flooded Paddy, scale 0 to 100, 0 no effect, 100 complete control; for Plant response rating, Ducksalad: flooded paddy test, scale 0 to 100 (0 no effect, 100 complete control)
Summary of the method: as §2

[14] = test system: smallflower flatsedge (Cyperus difformis); test: Test C flooded paddy test; details: for Flatsedge plant response rating: Flooded Paddy, scale 0 to 100, 0 no effect, 100 complete control; for Plant response rating, Flatsedge: flooded paddy test, scale 0 to 100 (0 no effect, 100 complete control)
Summary of the method: as §2

rice (Oryza saliva) [15] = test: Test C flooded paddy test; details: for Rice plant response rating: Flooded Paddy, scale 0 to 100, 0 no effect, 100 complete control; for Plant response rating, Rice: flooded paddy test, scale 0 to 100 (0 no effect, 100 complete control)
Summary of the method: as §2

[16] = test system: Surinam grass (Brachiaria decumbens); test: Test B postemergence
Summary of the method: as §1

[17] = test system: giant foxtail (Setaria faberii); test: Test B postemergence
Summary of the method: as §1

[18] = test system: velvetleaf (Abutilon theophrasti); test: Test B postemergence
Summary of the method: as §1

[19] = test system: pigweed (Amaranthus retroflexus); test: Test B postemergence
Summary of the method: as §1

[20] = test system: barnyardgrass (Echinochloa crus-galli); test: Test B postemergence
Summary of the method: as §1

[21] = test system: lambsquarters (Chenopodium album); test: Test B postemergence
Summary of the method: as §1

[22] = test system: cocklebur (Xanthium strumarium); test: Test B postemergence
Summary of the method: as §1

[23] = test system: wheat (Triticum aestivum); test: Test B postemergence
Summary of the method: as §1

corn (Zea mays) [24] = test: Test B postemergence
Summary of the method: as §1

[25] = test system: crabgrass (Digitaria sanguinalis); test: Test B postemergence
Summary of the method: as §1

wild oat (Avena fatua) = test: Test B postemergence
Summary of the method: as §1

[26] = test system: morning glory (Ipomoea hederacea); test: Test B postemergence
Summary of the method: as §1

[27] = test system: blackgrass (Alopecurus myosuroides); test: Test B postemergence
Summary of the method: as §1

[28] = Preemergence, Rate 500 g/ha, scale 0 to 100, 0 no effect, 100 complete control
[29] = preemergence, Rate 125 g/ha, scale of 0 to 100 where 0 is no effect and 100 is complete control, 13 to 15 days
[30] = Rate 125 g/ha, scale 0 to 100, 0 no effect, 100 complete control
[31] = Rate 500 g/ha, scale 0 to 100, 0 is no effect, 100 is complete control, 13 to 15 days

CCCCC(CCCC)c1ccn(C2OCN(c3cccc(C(F)(F)F)c3)C2=O)n1 (centres unmarked) [Compound 114]
Plant response rating, Surinam grass [1, 28]: 0
Plant response rating, Surinam grass [1, 29]: 0
Plant response rating, Foxtail, Giant [2, 28]: 0
Plant response rating, Foxtail, Giant [2, 29]: 0
Plant response rating, Velvetleaf [3, 28]: 0
Plant response rating, Velvetleaf [3, 29]: 0
Plant response rating, Pigweed [4, 28]: 100
Plant response rating, Pigweed [4, 29]: 30
Plant response rating, Barnyardgrass [5, 28]: 0
Plant response rating, Barnyardgrass [5, 29]: 0
Plant response rating, Lambsquarters [6, 28]: 100
Plant response rating, Lambsquarters [6, 29]: 30
Plant response rating, Cocklebur [7, 28]: 0
Plant response rating, Cocklebur [7, 29]: 0
Plant response rating, Rice (rice (Oryza saliva) [8]; [28]): 0
Plant response rating, Rice (rice (Oryza saliva) [8]; [29]): 0
Plant response rating, Corn (corn (Zea mays) [9]; [28]): 30
Plant response rating, Corn (corn (Zea mays) [9]; [29]): 20
Plant response rating, Crabgrass [10, 28]: 0
Plant response rating, Crabgrass [10, 29]: 0
Plant response rating, Morningglory [11, 28]: 30
Plant response rating, Morningglory [11, 29]: 0
Barnyardgrass plant response rating ([12]; Rate 250 g/ha): 0
Barnyardgrass plant response rating ([12]; Rate 500 g/ha): 0
Plant response rating, Barnyardgrass ([12]; Rate 62 g/ha): 0
Plant response rating, Barnyardgrass ([12]; Rate 125 g/ha): 0
Ducksalad plant response rating ([13]; Rate 250 g/ha): 0
Ducksalad plant response rating ([13]; Rate 500 g/ha): 0
Plant response rating, Ducksalad ([13]; Rate 62 g/ha): 0
Plant response rating, Ducksalad ([13]; Rate 125 g/ha): 0
Flatsedge plant response rating ([14]; Rate 250 g/ha): 0
Flatsedge plant response rating ([14]; Rate 500 g/ha): 0
Plant response rating, Flatsedge ([14]; Rate 62 g/ha): 0
Plant response rating, Flatsedge ([14]; Rate 125 g/ha): 0
Rice plant response rating (rice (Oryza saliva) [15]; Rate 250 g/ha): 0
Rice plant response rating (rice (Oryza saliva) [15]; Rate 500 g/ha): 0
Plant response rating, Rice (rice (Oryza saliva) [15]; Rate 62 g/ha): 0
Plant response rating, Rice (rice (Oryza saliva) [15]; Rate 125 g/ha): 0
Plant response rating, Surinam grass [16, 30]: 30
Plant response rating, Surinam grass [16, 31]: 30
Plant response rating, Foxtail, Giant [17, 30]: 0
Plant response rating, Foxtail, Giant [17, 31]: 0
Plant response rating, Velvetleaf [18, 30]: 0
Plant response rating, Velvetleaf [18, 31]: 0
Plant response rating, Pigweed [19, 30]: 90
Plant response rating, Pigweed [19, 31]: 100
Plant response rating, Barnyardgrass [20, 30]: 0
Plant response rating, Barnyardgrass [20, 31]: 20
Plant response rating, Lambsquarters [21, 30]: 90
Plant response rating, Lambsquarters [21, 31]: 100
Plant response rating, Cocklebur [22, 30]: 50
Plant response rating, Cocklebur [22, 31]: 60
Plant response rating, Wheat [23, 30]: 20
Plant response rating, Wheat [23, 31]: 30
Plant response rating, Corn (corn (Zea mays) [24]; [30]): 0
Plant response rating, Corn (corn (Zea mays) [24]; [31]): 0
Plant response rating, Crabgrass [25, 30]: 20
Plant response rating, Crabgrass [25, 31]: 30
Plant response rating, Wild Oat (wild oat (Avena fatua); [30]): 30
Plant response rating, Wild Oat (wild oat (Avena fatua); [31]): 50
Plant response rating, Morningglory [26, 30]: 30
Plant response rating, Morningglory [26, 31]: 60
Plant response rating, Blackgrass [27, 30]: 0
Plant response rating, Blackgrass [27, 31]: 0

CCCCC(CCCC)c1ccn(C2SCN(c3cccc(C(F)(F)F)c3)C2=O)n1 (centres unmarked) [Compound 116]
Plant response rating, Surinam grass [1, 28]: 0
Plant response rating, Surinam grass [1, 29]: 0
Plant response rating, Foxtail, Giant [2, 28]: 0
Plant response rating, Foxtail, Giant [2, 29]: 0
Plant response rating, Velvetleaf [3, 28]: 0
Plant response rating, Velvetleaf [3, 29]: 0
Plant response rating, Pigweed [4, 28]: 0
Plant response rating, Pigweed [4, 29]: 0
Plant response rating, Barnyardgrass [5, 28]: 0
Plant response rating, Barnyardgrass [5, 29]: 0
Plant response rating, Lambsquarters [6, 28]: 0
Plant response rating, Lambsquarters [6, 29]: 0
Plant response rating, Cocklebur [7, 28]: 0
Plant response rating, Cocklebur [7, 29]: 0
Plant response rating, Rice (rice (Oryza saliva) [8]; [28]): 0
Plant response rating, Rice (rice (Oryza saliva) [8]; [29]): 0
Plant response rating, Corn (corn (Zea mays) [9]; [28]): 0
Plant response rating, Corn (corn (Zea mays) [9]; [29]): 0
Plant response rating, Crabgrass [10, 28]: 0
Plant response rating, Crabgrass [10, 29]: 0
Plant response rating, Morningglory [11, 28]: 0
Plant response rating, Morningglory [11, 29]: 0
Barnyardgrass plant response rating ([12]; Rate 250 g/ha): 0
Barnyardgrass plant response rating ([12]; Rate 500 g/ha): 0
Plant response rating, Barnyardgrass ([12]; Rate 62 g/ha): 0
Plant response rating, Barnyardgrass ([12]; Rate 125 g/ha): 0
Ducksalad plant response rating ([13]; Rate 250 g/ha): 0
Ducksalad plant response rating ([13]; Rate 500 g/ha): 0
Plant response rating, Ducksalad ([13]; Rate 62 g/ha): 0
Plant response rating, Ducksalad ([13]; Rate 125 g/ha): 0
Flatsedge plant response rating ([14]; Rate 250 g/ha): 0
Flatsedge plant response rating ([14]; Rate 500 g/ha): 0
Plant response rating, Flatsedge ([14]; Rate 62 g/ha): 0
Plant response rating, Flatsedge ([14]; Rate 125 g/ha): 0
Rice plant response rating (rice (Oryza saliva) [15]; Rate 250 g/ha): 0
Rice plant response rating (rice (Oryza saliva) [15]; Rate 500 g/ha): 0
Plant response rating, Rice (rice (Oryza saliva) [15]; Rate 62 g/ha): 0
Plant response rating, Rice (rice (Oryza saliva) [15]; Rate 125 g/ha): 0
Plant response rating, Surinam grass [16, 30]: 0
Plant response rating, Surinam grass [16, 31]: 20
Plant response rating, Foxtail, Giant [17, 30]: 0
Plant response rating, Foxtail, Giant [17, 31]: 0
Plant response rating, Velvetleaf [18, 30]: 20
Plant response rating, Velvetleaf [18, 31]: 30
Plant response rating, Pigweed [19, 30]: 50
Plant response rating, Pigweed [19, 31]: 70
Plant response rating, Barnyardgrass [20, 30]: 0
Plant response rating, Barnyardgrass [20, 31]: 20
Plant response rating, Lambsquarters [21, 30]: 70
Plant response rating, Lambsquarters [21, 31]: 90
Plant response rating, Cocklebur [22, 30]: 30
Plant response rating, Cocklebur [22, 31]: 50
Plant response rating, Wheat [23, 30]: 20
Plant response rating, Wheat [23, 31]: 20
Plant response rating, Corn (corn (Zea mays) [24]; [30]): 20
Plant response rating, Corn (corn (Zea mays) [24]; [31]): 20
Plant response rating, Crabgrass [25, 30]: 20
Plant response rating, Crabgrass [25, 31]: 40
Plant response rating, Wild Oat (wild oat (Avena fatua); [30]): 30
Plant response rating, Wild Oat (wild oat (Avena fatua); [31]): 50
Plant response rating, Morningglory [26, 30]: 30
Plant response rating, Morningglory [26, 31]: 30
Plant response rating, Blackgrass [27, 30]: 0
Plant response rating, Blackgrass [27, 31]: 60
